Source: patent US20250312469A1 (CANGET BIOTEKPHARMA, priority 2024, published 2025)
Values joined by “and” are separate entries in the source; they are usually repeats but may differ in a detail not shown here. Equal values may be shown once.

Key:
in vitro [1] = conditions: both, human, s9
[2] = HPβCD-FL118 complex dissolution test; format: physicochemical; conditions: 37° C.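 Note: 20 mL buffer stirred at 100 rpm.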
Experimental: The collected samples were analyzed for the concentrations of the supernatants by HPLC.

Blood partitioning = conditions: human whole blood
CRPC LAPC9 tumors = test: LAPC9 CRPC tumor model; format: in vivo, SCID mice; conditions: 10 mg/kg i.p., 6 times over 2 weeks
CYP3A = test: in vitro; conditions: human, microsomes, pH 7.4
Experimental: (§1) The CYP reaction was initiated by adding a CYP probe substrate and incubating at 37° C. for 10-20 minutes, depending on the individual CYP isoform. The reaction was terminated with the addition of 400 μL ice-cold acetonitrile (ACN). […] Positive controls were performed in parallel using a known inhibitor of the individual CYP isoform. […] The samples were then transferred to 96-well plates and analyzed by LC-MS/MS (Appendix 1).

CYP1A2 mRNA = test: CYP induction (mRNA) in fresh human hepatocytes; conditions: human, 3 days, 50 µM
Description: (§2) (2) CYP positive inducers (Table 58a) and Williams' Medium E (WME) were purchased from Sigma-Aldrich (St. Louis, MO, USA). Dulbecco's phosphate-buffered saline (DPBS, pH 7.4) was purchased from Invitrogen (Carlsbad, CA, USA). Hepatocyte culture medium (serum-free) for CYP induction was purchased from XenoTech (catalog #K2300, Lenexa, KS, USA). The CellTiter 96 AQueous ONE Solution Cell Proliferation Assay was obtained from Promega (Madison, WI, USA). All other chemicals and reagents were of analytical grade or higher. (3) Fresh human hepatocytes (Table 58b) seeded at ˜0.15 million cells/well in 48-well plates (˜0.75 million cells/mL) were purchased from Thermo Fisher Scientific (Grand Island, NY, USA) and BioreclamationIVT (Baltimore, MD, USA).
(§3) Vehicle controls were treated in parallel with hepatocyte culture medium. […] (2) After the CYP induction treatment, the cells were used for a cell viability assay. […] The absorbance of formazan, which is proportional to the number of viable cells, was measured spectrophotometrically using the CellTiter 96 AQueous ONE Solution Cell Proliferation Assay. […] (3) Total RNA was isolated from the treated cells using the RNeasy mini kit (Qiagen, Valencia, CA, USA) and treated with RNase-free DNase (Qiagen) following the manufacturer's protocols. The concentration of RNA was determined using a Qubit Fluorometer with a Qubit RNA HS assay kit (Invitrogen). cDNA was synthesized from up to 1 μg of the total RNA harvested from the cells using a QuantiTect RT kit (Qiagen). Analysis of gene expression by qPCR was performed using the LightCycler 480 System (Roche Diagnostics Corporation, Indianapolis, IN, USA).

CYP2B6 mRNA = test: CYP induction (mRNA) in fresh human hepatocytes; conditions: human
Description: as §2, §3

human hepatocytes = test: Cell viability (MTS) after CYP induction treatment; conditions: donor 2, control inducers (OME, PB, RIF)
Experimental: as §3

[3] = test system: L5178Y TK+/− mouse lymphoma cells; test: Mouse Lymphoma Assay (MLA); conditions: for Avg. MF (Mutant Frequency) / Avg. SG: 24 h treatment, −S9
Experimental: The cells were prepared in Fischer's or RPMI media supplemented with 10% heat-inactivated horse serum, penicillin-streptomycin, Lglutamine, sodium pyruvate and Pluronic F68. In the initial assay, prior to use in the test, the culture was purged of preexisting TK−/− mutations by exposure to THMG treated medium for 1 day, followed by a transfer to THG medium for 1 to 2 days. This was performed 5 to 8 days prior to testing. In the expanded assay a vial of frozen cells was thawed and used within 5 to 8 days of growth. No washing was needed because the cells were purged of preexisting TK−/− mutations by exposure to THMG treated medium for 1 day and then THG medium for 1 day prior to freezing. […] Colonies were counted using an automated colony counter or manually. After 4 or 24 hours of exposure, the cells were grown for recovery and expression for approximately 48 hours before plated in TFT cloning media. A second set of plates were prepared without TFT to assess viability of cells following treatment. […] Colonies observed on the TFT plate were defined as small or large colonies. […] (3) Of note, the metabolic activation system in this assay consisted of a rat liver homogenate (S-9 microsomal fraction), which was delivered to the test system in the presence of a core mix consisting of NADP and cofactors for NADPH-supported oxidation. The S9 was prepared using the following recipe (per treatment tube); 1 mL of 20 mg/mL S9, 32 mg of NADP, 60 mg of isocitric acid, 40 μL of calcium chloride (CaCl2) and 3.0 mL of cell cultural media. All treatments were performed in duplicate. The treatment tubes were placed in a CO2 incubator at 37±1° C. with continuous agitation.

CYP2B6 = target: T1, CYP2B6 (Homo sapiens, UniProt P20813); test: in vitro; conditions: human, microsomes, pH 7.4
T1 sequence (P20813 1-491): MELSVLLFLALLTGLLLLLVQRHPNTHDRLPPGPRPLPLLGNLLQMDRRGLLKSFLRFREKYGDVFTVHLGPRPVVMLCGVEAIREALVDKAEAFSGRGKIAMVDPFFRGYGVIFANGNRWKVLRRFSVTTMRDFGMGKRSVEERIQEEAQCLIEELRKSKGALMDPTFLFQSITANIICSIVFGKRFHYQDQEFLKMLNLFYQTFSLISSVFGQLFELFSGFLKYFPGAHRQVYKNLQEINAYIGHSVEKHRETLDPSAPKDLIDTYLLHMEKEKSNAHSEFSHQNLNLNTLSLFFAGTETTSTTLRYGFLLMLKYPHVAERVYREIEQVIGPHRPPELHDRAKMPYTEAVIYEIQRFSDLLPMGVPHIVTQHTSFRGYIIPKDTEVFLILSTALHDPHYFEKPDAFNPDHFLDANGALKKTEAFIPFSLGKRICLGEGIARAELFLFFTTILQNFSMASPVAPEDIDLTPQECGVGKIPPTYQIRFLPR
Experimental: as §1

in vitro [4] = test: in vitro
[5] = Liver microsome stability; conditions: human liver microsome; control compound
DDX5 = DDX5 (Homo sapiens, UniProt P17844); test: Isothermal titration calorimetry (ITC), Flag-DDX5; format: binding; conditions: ITC, 25° C., 1×PBS pH7.4 with 8% DMSO
Chain of DDX5 (P17844 whole entry): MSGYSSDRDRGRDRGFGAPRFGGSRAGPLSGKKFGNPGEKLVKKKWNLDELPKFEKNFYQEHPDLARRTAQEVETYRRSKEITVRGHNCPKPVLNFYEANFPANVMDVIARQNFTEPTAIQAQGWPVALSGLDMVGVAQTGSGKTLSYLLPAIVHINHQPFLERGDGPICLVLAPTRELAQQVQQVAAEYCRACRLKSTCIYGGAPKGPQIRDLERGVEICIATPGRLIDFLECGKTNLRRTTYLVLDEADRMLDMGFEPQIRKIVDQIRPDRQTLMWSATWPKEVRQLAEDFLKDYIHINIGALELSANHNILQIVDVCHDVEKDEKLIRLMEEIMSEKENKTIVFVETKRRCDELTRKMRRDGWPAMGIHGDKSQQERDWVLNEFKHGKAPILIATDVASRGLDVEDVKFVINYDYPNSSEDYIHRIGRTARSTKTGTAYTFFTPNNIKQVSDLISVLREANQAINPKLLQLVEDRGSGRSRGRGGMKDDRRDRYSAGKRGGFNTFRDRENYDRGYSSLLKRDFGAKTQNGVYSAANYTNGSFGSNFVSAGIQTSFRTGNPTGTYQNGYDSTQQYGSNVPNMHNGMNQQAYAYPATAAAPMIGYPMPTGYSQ

P-gp = P-gp (Homo sapiens, UniProt P08183); conditions: Caco-2; digoxin as substrate; 1.0 μM FL118 or 1.0 μM Valspodar
Chain of P-gp (P08183 whole entry): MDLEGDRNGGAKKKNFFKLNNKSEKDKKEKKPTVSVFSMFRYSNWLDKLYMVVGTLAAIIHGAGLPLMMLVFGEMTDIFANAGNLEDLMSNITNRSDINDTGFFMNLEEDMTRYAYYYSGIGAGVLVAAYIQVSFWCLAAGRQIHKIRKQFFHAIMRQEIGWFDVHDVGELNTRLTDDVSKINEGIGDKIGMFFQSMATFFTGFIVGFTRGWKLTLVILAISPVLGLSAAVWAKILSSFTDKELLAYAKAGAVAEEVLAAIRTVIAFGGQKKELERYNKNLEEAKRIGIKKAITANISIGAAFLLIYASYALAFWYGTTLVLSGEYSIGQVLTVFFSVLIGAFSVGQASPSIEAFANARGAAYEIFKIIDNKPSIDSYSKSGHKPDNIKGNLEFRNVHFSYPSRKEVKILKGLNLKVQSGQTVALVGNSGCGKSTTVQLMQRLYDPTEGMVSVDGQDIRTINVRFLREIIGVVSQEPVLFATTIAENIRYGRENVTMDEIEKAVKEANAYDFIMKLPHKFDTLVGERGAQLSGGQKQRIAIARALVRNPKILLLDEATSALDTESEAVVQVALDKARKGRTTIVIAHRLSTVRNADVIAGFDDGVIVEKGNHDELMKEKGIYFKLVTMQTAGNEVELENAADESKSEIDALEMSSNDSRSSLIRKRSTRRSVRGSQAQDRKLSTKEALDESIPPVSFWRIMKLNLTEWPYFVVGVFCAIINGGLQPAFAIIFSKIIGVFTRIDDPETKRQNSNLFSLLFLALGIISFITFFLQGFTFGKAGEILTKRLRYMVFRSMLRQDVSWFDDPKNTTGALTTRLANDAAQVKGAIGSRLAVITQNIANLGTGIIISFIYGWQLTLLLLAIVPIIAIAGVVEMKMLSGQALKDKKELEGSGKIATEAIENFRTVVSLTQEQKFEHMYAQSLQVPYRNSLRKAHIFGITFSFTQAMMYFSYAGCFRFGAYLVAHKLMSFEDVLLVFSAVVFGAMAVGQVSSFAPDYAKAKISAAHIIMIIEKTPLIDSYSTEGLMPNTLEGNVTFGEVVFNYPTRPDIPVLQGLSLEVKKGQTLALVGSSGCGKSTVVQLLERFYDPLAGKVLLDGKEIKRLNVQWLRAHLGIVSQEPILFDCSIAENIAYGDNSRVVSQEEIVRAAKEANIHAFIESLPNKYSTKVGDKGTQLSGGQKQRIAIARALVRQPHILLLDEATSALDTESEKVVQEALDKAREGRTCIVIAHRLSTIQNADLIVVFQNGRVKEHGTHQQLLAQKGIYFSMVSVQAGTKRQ

SMILES: O=c1ccc2ccc(O)cc2o1 [7-hydroxycoumarin, reference compound]
- microsomal CLint (in vitro [1]): 57.3 µL/min/mg

SMILES: CC[C@@]1(O)C(=O)OCc2c1cc1n(c2=O)Cc2cc3cc4c(cc3nc2-1)OCO4 [API]
- Concentration (dissolution) ([2]; pH 1.2, 5 min): 0.43 µg/mL
- Concentration (dissolution) ([2]; pH 1.2, 10 min): 1.55 µg/mL
- Concentration (dissolution) ([2]; pH 1.2, 15 min): 0.47 µg/mL
- Concentration (dissolution) ([2]; pH 1.2, 30 min): 0.64 µg/mL
- Concentration (dissolution) ([2]; pH 1.2, 45 min): 0.51 µg/mL
- Concentration (dissolution) ([2]; pH 1.2, 60 min): 1.43 µg/mL
- Concentration (dissolution) ([2]; pH 1.2, 90 min): 1.36 µg/mL
- Concentration (dissolution) ([2]; pH 1.2, 120 min): 4.47 µg/mL
- Concentration (dissolution) ([2]; pH 6.8, 5 min): 0.96 µg/mL
- Concentration (dissolution) ([2]; pH 6.8, 10 min): 0.19 µg/mL
- Concentration (dissolution) ([2]; pH 6.8, 15 min): 0.31 µg/mL
- Concentration (dissolution) ([2]; pH 6.8, 30 min): 1.11 µg/mL
- Concentration (dissolution) ([2]; pH 6.8, 45 min): 0.31 µg/mL
- Concentration (dissolution) ([2]; pH 6.8, 60 min): 0.90 µg/mL
- Concentration (dissolution) ([2]; pH 6.8, 90 min): 0.97 µg/mL
- Concentration (dissolution) ([2]; pH 6.8, 120 min): 1.43 µg/mL

SMILES: NS(=O)(=O)c1cc(C2(O)NC(=O)c3ccccc32)ccc1Cl (stereo not shown) [Chlorthalido]
- RBC to Plasma Partitioning (KRBC/P) (Blood partitioning): 19.7

SMILES: CNC(=O)c1ccc(N2C(=S)N(c3ccc(C#N)c(C(F)(F)F)c3)C(=O)C2(C)C)cc1F [Enza, enzalutamide, reference compound]
- antitumor efficacy (CRPC LAPC9 tumors): not sensitive to Enza

SMILES: CC(=O)N1CCN(c2ccc(OCC3COC(Cn4ccnc4)(c4ccc(Cl)cc4Cl)O3)cc2)CC1 (stereo not shown) [Ketoconazole]
- % Inhibition (Positive Control) (CYP3A): 94.5%

SMILES: COc1ccc2[nH]c([S+]([O-])Cc3ncc(C)c(OC)c3C)nc2c1 (stereo not shown) [Omeprazole (OME), Omeprazole, reference compound]
- % of OME-treated Cells (CYP1A2 mRNA): 100%

SMILES: CCC1(c2ccccc2)C(=O)NC(=O)NC1=O [Phenobarbital (PB), Phenobarbital, reference compound]
- % of PB-treated Cells (CYP2B6 mRNA): 100%

SMILES: CO[C@H]1/C=C/O[C@@]2(C)Oc3c(C)c(O)c4c(O)c(c(/C=N/N5CCN(C)CC5)c(O)c4c3C2=O)NC(=O)/C(C)=C\C=C\[C@H](C)[C@H](O)[C@@H](C)[C@@H](O)[C@@H](C)[C@H](OC(C)=O)[C@@H]1C [Rifampicin (RIF), Rifampicin, reference compound]
- Formazan Absorbance Mean (human hepatocytes): 1.37

SMILES: CC[C@@]1(O)C(=O)OCc2c1cc1n(c2=O)Cc2cc3cc4c(cc3nc2-1)OCO4 [Test Article]
- Avg. MF (Mutant Frequency) ([3]; Test Article 0.1 uM): 345 mutants/1×10^6 cells
- Avg. SG ([3]; Test Article 0.1 uM): 29.1
- Avg. MF (Mutant Frequency) ([3]; Test Article .01 uM): 125 mutants/1×10^6 cells
- Avg. SG ([3]; Test Article .01 uM): 66.2

SMILES: S=P(N1CC1)(N1CC1)N1CC1 [Thio-TEPA]
- % Inhibition (Positive Control) (CYP2B6): 71.5%

SMILES: O=P1(N(CCCl)CCCl)NCCCO1 (stereo not shown) [cyclophosphamide (CP), cyclophosphamide]
- Average SG ([3]; 4 h, +S9, 15 μg/mL): 7.3
- Day 1 Growth Cell Conc. ([3]; 4 h, +S9, 15 μg/mL): 4.79E+05 Cell/mL and 5.44E+05 Cell/mL
- Day 2 Growth Cell Conc. ([3]; 4 h, +S9, 15 μg/mL): 1.29E+06 Cell/mL and 1.30E+06 Cell/mL
- Relative Suspension Growth (%) ([3]; 4 h, +S9, 15 μg/mL): 52.7% and 58.8%
- Suspension Growth (SG) ([3]; 4 h, +S9, 15 μg/mL): 5.9 and 7.7
- Average SG ([3]; 4 h, +S9, 17.5 μg/mL): 4.9
- Day 1 Growth Cell Conc. ([3]; 4 h, +S9, 17.5 μg/mL): 3.20E+05 Cell/mL and 3.86E+05 Cell/mL
- Day 2 Growth Cell Conc. ([3]; 4 h, +S9, 17.5 μg/mL): 1.14E+06 Cell/mL and 1.25E+06 Cell/mL
- Relative Suspension Growth (%) ([3]; 4 h, +S9, 17.5 μg/mL): 32.1% and 42.0%
- Suspension Growth (SG) ([3]; 4 h, +S9, 17.5 μg/mL): 4.2 and 5.5
- Avg. % of IMF Small Colony ([3]; 4 h summary, +S9, 15 μg/mL): 62.1%
- Avg. IMF ([3]; 4 h summary, +S9, 15 μg/mL): 1000 ×10^−6
- Avg. IMF Small Colony ([3]; 4 h summary, +S9, 15 μg/mL): 621 ×10^−6
- Avg. RTG ([3]; 4 h summary, +S9, 15 μg/mL): 21.6%
- Avg. % of IMF Small Colony ([3]; 4 h summary, +S9, 17.5 μg/mL): 58.6%
- Avg. IMF ([3]; 4 h summary, +S9, 17.5 μg/mL): 1513 ×10^−6
- Avg. IMF Small Colony ([3]; 4 h summary, +S9, 17.5 μg/mL): 880 ×10^−6
- Avg. RTG ([3]; 4 h summary, +S9, 17.5 μg/mL): 6.7%

SMILES: COS(C)(=O)=O [methyl methanesulfonate (MMS), methyl methanesulfonate]
- Average SG ([3]; mouse, 24 h, 5 μg/mL): 48.2
- Avg. % of IMF Small Colony ([3]; mouse, 24 h, 5 μg/mL): 52.4%
- Avg. IMF (Induced Mutant Frequency) ([3]; mouse, 24 h, 5 μg/mL): 458 mutants/1×10^6 cells
- Avg. IMF Small Colony ([3]; mouse, 24 h, 5 μg/mL): 240 mutants/1×10^6 cells
- Avg. RTG (Relative Total Growth) ([3]; mouse, 24 h, 5 μg/mL): 38.7%
- Relative Suspension Growth (%) ([3]; mouse, 24 h, 5 μg/mL): 62.5%
- Average SG ([3]; mouse, 24 h, 8 μg/mL): 26.2
- Avg. % of IMF Small Colony ([3]; mouse, 24 h, 8 μg/mL): 54.7%
- Avg. IMF (Induced Mutant Frequency) ([3]; mouse, 24 h, 8 μg/mL): 750 mutants/1×10^6 cells
- Avg. IMF Small Colony ([3]; mouse, 24 h, 8 μg/mL): 417 mutants/1×10^6 cells
- Avg. RTG (Relative Total Growth) ([3]; mouse, 24 h, 8 μg/mL): 15.5%

SMILES: C[C@]12CC[C@H]3[C@@H](CCC4=CC(=O)CC[C@@]43C)[C@@H]1CC[C@@H]2O [testosterone, reference compound]
- hepatocyte CLint (in vitro [4]; both, human, hepatocytes, pH 7.4): 212 µL/min/1e6 cells
- half-life (in vitro [4]; cryopreserved human hepatocytes, control compound): 2.2 min
- CLint [5]: 0.0478 ml/min/mg protein
- half-life [5]: 29 min
- microsomal CLint (in vitro [1]): 20.7 µL/min/mg

SMILES: CC[C@@]1(O)C(=O)OCc2c1cc1n(c2=O)Cc2cc3c(CN(C)C)c(O)ccc3nc2-1 [topotecan, reference compound]
- Kd (DDX5): ≥ 1080 nM

SMILES: C/C=C/C[C@@H](C)C(=O)[C@H]1C(=O)N[C@@H](C(C)C)C(=O)N(C)CC(=O)N(C)[C@@H](CC(C)C)C(=O)N[C@@H](C(C)C)C(=O)N(C)[C@@H](CC(C)C)C(=O)N[C@@H](C)C(=O)N[C@H](C)C(=O)N(C)[C@@H](CC(C)C)C(=O)N(C)[C@@H](CC(C)C)C(=O)N(C)[C@@H](C(C)C)C(=O)N1C [valspodar, reference compound]
- P-gp Inhibition Potential Classification (P-gp): Positive (ER≥2.0 without inhibitor, and reduced by ≥50% with inhibitor: Positive)
